We go through 52 compounds from PubChem BioAssay AID1996.

One may read the solubility (kinetic) as the concentration staying in solution when a stock, usually in DMSO, is diluted into the medium.

≈ marks a conversion by molar mass, not a printed value.

The conditions of this data set: buffer; pH 7.4; 200.0 µM.
Regarding `O=C(O)c1nccnc1C(=O)Nc1ccccc1-c1ccccc1`, the solubility (kinetic) was over 47.9 µg/mL. With `CN(C)C(=O)Nc1ccccc1` the figure was over 24.6 µg/mL; with `O=C(CCN1C(=O)C2CC=CCC2C1=O)Nc1nccs1` (configuration not stated), over 45.8 µg/mL; with `CN(CCOc1ccc(CC2SC(=O)NC2=O)cc1)c1ccccn1.O=C(O)/C=C\C(=O)O` (configuration not stated), 68.2 µg/mL.

With `COc1ccc(CC(=O)N2CCN(c3ccccc3)CC2)cc1OC`, the kinetic solubility amounted to 49.9 µg/mL (≈ 147 µM). As for `Clc1ccccc1-c1nc(-c2ccc(Br)o2)no1`, the kinetic solubility was under 0.3 µg/mL. In turn, `Oc1ccc(N2Cc3ccccc3C2)cc1` registered a kinetic solubility of 9.9 µg/mL (≈ 46.9 µM).

`CCc1nccn1S(=O)(=O)c1cc(OC)ccc1OC`: the solubility (kinetic) came to 32.9 µg/mL (≈ 111 µM). Compared with the last compound, the solubility kinetic is about 3.3-fold higher. As to `CC(C)c1ccc(/C=C/C(=O)NCc2ccc(S(N)(=O)=O)cc2)cc1`, the solubility (kinetic) was 5.1 µg/mL (≈ 14.2 µM). As for `O=C1/C(=C/c2cccnc2)N2CCC1CC2`, the kinetic solubility was over 32.1 µg/mL. Turning to `O=C(NCc1ccccc1Cl)c1cc(=O)[nH]c2ccccc12`, the solubility (kinetic) turned out to be 7.4 µg/mL (≈ 23.7 µM).

Consider `Cc1c(NS(C)(=O)=O)cccc1-c1nc2cccnc2s1`, for which the kinetic solubility was found to be 42.9 µg/mL (≈ 134 µM). In turn, `COC(=O)[C@@H](NC(=O)N1CCC(C)CC1)C(C)C` gave a solubility (kinetic) of 34 µg/mL (≈ 133 µM). The solubility kinetic values of the last two compounds are within 1.5-fold of each other. With `Cn1cccc1C(C#N)(CC#N)c1cccc(F)c1C#N` (configuration not stated) the figure was 40.4 µg/mL (≈ 145 µM); with `O=[N+]([O-])c1ccc(C(O)C23CN4CN(CN(C4)C2)C3)cc1` (configuration not stated), 34.8 µg/mL (≈ 120 µM); with `COc1ccc(C)cc1N(CC(=O)N1CCCC1)S(C)(=O)=O`, over 49 µg/mL. `CCCCN(C(C)=O)C1CC(=O)N(c2ccc(OCCC)cc2)C1=O` (configuration not stated) came in with a kinetic solubility of over 52 µg/mL. The compound `COc1cc(C(C)=O)ccc1OCC(=O)NCC(c1ccc(F)cc1)N1CCOCC1` (configuration not stated) came in with a solubility (kinetic) of over 64.6 µg/mL.

With `CC(C)c1ccccc1NC(=O)Nc1ccc2c(c1)OCO2`, the kinetic solubility was determined as 2.7 µg/mL (≈ 9.05 µM).

Take `COc1cc(Oc2ccccc2)nc(N)n1`: the kinetic solubility is over 32.6 µg/mL. In turn, `Nc1cc(=O)[nH]c(SCC(=O)Nc2cc(Cl)ccc2Cl)n1` yielded a kinetic solubility of 3.5 µg/mL (≈ 10.1 µM). On to `COCC(C)NC(=O)c1cc2c(ccc3ccccc32)oc1=O` (configuration not stated), for which the solubility (kinetic) was determined as 18.1 µg/mL (≈ 58.1 µM). With `Cc1ccc(OCCn2cnc(Cl)c2Cl)cc1` the figure was 31.7 µg/mL (≈ 117 µM). `Cc1ccc(S(=O)(=O)N(C)CC(=O)N2CCC(C(N)=O)CC2)cc1`: the solubility (kinetic) is over 53 µg/mL. With `Cc1cc(C(=O)OCC(=O)N2CCCCCC2)ccc1[N+](=O)[O-]` the figure was over 48.1 µg/mL; with `O=C1CSC(c2ccccc2)N1Cc1ccccc1` (configuration not stated), 31.3 µg/mL (≈ 116 µM); with `COc1ccc(NCc2nc3ccccc3n2C)cc1`, 35 µg/mL (≈ 131 µM). With `CCOc1ccc(-n2ccnc(SCC(=O)NC3CCCC3)c2=O)cc1` the figure was 32.6 µg/mL (≈ 87.3 µM).

`O=C(CSc1nccc(=O)[nH]1)NCc1ccc(Cl)cc1` displayed a solubility (kinetic) of over 46.5 µg/mL. In turn, `Cc1[nH]c(=O)c(C#N)c(C)c1[N+](=O)[O-]` came in with a solubility (kinetic) of 27.3 µg/mL (≈ 141 µM). With `Cc1onc(-c2c(F)cccc2Cl)c1C(=O)N=C(N)N1CCCC1`, the solubility (kinetic) was 5 µg/mL (≈ 14.3 µM). `N#Cc1c(N2CCOCC2)nsc1-c1ccccc1`: the kinetic solubility worked out at 1.6 µg/mL (≈ 5.9 µM). `O=C1CC(c2ccccc2)Cc2nc(NC3CC3)ncc21` (configuration not stated) registered a solubility (kinetic) of 2.7 µg/mL (≈ 9.67 µM). As to `CC(=O)c1c[nH]c(C(=O)NCc2cccc(C(F)(F)F)c2)c1`, the kinetic solubility came to 2.2 µg/mL (≈ 7.09 µM). The solubility kinetic values of the last two compounds are within 1.5-fold of each other.

`Cc1cccc(OCCC(=O)Nc2ccc(Cl)cc2F)c1`: the kinetic solubility was under 0.7 µg/mL. In the case of `CCOC(=O)c1ccc(-n2c(CC)nc3ccccc3c2=O)cc1`, the kinetic solubility came out at 1.4 µg/mL (≈ 4.34 µM). `FC(F)Oc1ccccc1NC(=S)Nc1cccnc1` had a solubility (kinetic) of 43.8 µg/mL (≈ 148 µM). With `COC(=O)c1ccc(CSc2nc3ccccc3c(=O)n2C)o1` the figure was 4.5 µg/mL (≈ 13.6 µM); with `Cc1cc(N2CCCC2=O)ccc1S(=O)(=O)NC1CCCCC1`, 29.3 µg/mL (≈ 87.1 µM); with `COc1ccc(NC(=O)C(=S)N2CCCC2)cc1`, over 39.7 µg/mL. `O=C(NCCCn1ccnc1)c1cc2ccccc2o1` returned a kinetic solubility of over 40.4 µg/mL.

As to `COc1ccc(OC)c(NC(=O)NC2CCCCCCC2)c1`, the kinetic solubility is 2.2 µg/mL (≈ 7.18 µM). With `COc1ccc(OC)c(/C=C/C(=O)Nc2ccc(OC)nc2)c1` the figure was 4.7 µg/mL (≈ 15 µM); with `O=C(OCC(=O)N1CCCC1)c1cc(=O)c2ccccc2o1`, over 45.2 µg/mL; with `COC(=O)CN1C(=O)COc2ccc(S(=O)(=O)NCc3ccccc3)cc21`, 58.3 µg/mL (≈ 149 µM). Regarding `CCOC(=O)c1cnc2c(cnn2C)c1NCCCn1ccnc1`, the solubility (kinetic) is over 49.3 µg/mL.

Compound `CC(C)CCN1CCN(C2CSCCSC2)CC1CCO` (configuration not stated) came in with a solubility (kinetic) of over 49.9 µg/mL. For the compound `OCCNCC12CC3CC(CC(C3)C1)C2`, the kinetic solubility came to 26.4 µg/mL (≈ 126 µM). Compound `CCn1c(=O)c2ccccc2n2c(SCC(N)=O)nnc12` registered a kinetic solubility of over 45.5 µg/mL. With `COc1ccc(CC(=O)NCCN2CCOCC2)cc1` the figure was over 41.8 µg/mL; with `O=C(Oc1cc(=O)oc2c1c(=O)n1c3c(cccc23)CC1)c1ccccc1`, 33 µg/mL (≈ 91.8 µM); with `Brc1ccc(OCCN2CCOCC2)cc1`, 29 µg/mL (≈ 101 µM).
